Experimental data taken from PMC9157009, “Protein proximity networks and functional evaluation of the casein kinase 1 gamma family reveal unique roles for CK1γ3 in WNT signaling” (The Journal of Biological Chemistry, 2022).
Several values for one entry are separate records, joined by “and”; a condition that tells them apart may be missing. Identical values can stand only once.

Columns and labels:
[1] = system: BAR reporter (β-catenin-dependent WNT signaling); assay: BAR luciferase transcriptional reporter assay in HEK293T B/R cells; type: cell-based, human; details: HEK293T B/R cells transfected 14 h, 0.1, 1.0 or 10 μM FP1 for 18 h
Procedure: All luciferase reporter assays were performed as previously described ([15], [43]). […] In both loss-of-function and gain-of-function experiments, treatments (WNT3A CM or drug) were added 18 h before harvesting cells. Conditions were plated in triplicate, and Renilla normalized values were averaged across triplicates to yield the data presented and standard error. Each assay was repeated in biological triplicate, unless otherwise stated. Firefly luciferase and the Renilla control were detected using the Promega Dual-Luciferase Reporter Assay System per the manufacturer’s protocol (Promega; catalog no.: E1960). Plates were read on the Victor Nivo plate reader (PerkinElmer).

GSK3β = molecular target: T1, GSK3β (Homo sapiens, UniProt P49841); assay: scanMAX binding assay, GSK3β; details: Percent of Control; legend and method: 1 μM
T1 construct: purchased Eurofins DiscoverX Corporation
Text: (§1) As described previously, this commercial assay platform screens against 403 WT human kinases in binding assays and provides PoC values ([73]).

CSNK1A1 = CSNK1A1 (Homo sapiens, UniProt P48729); assay: scanMAX binding assay, CSNK1A1; details: Percent of Control; legend and method: 1 μM; read-out: CSNK1A1 PoC @ 1 µM
Text: as §1

CK1γ3 = molecular target: T2, CK1γ3 (Homo sapiens, UniProt Q9Y6M4); assay: Eurofins kinase enzymatic radiometric assay, CK1γ3; type: biochemical; details: Km = ATP, 9-pt curve in duplicate
T2 construct: purchased Eurofins
Text: (§2) Details related to the substrate used, protein constructs, controls, and assay protocol for each kinase assay are included on the Eurofins website: https://www.eurofinsdiscoveryservices.com/.

GSK3β (NLuc-GSK3β) = molecular target: T3, GSK3β (NLuc-GSK3β) (Homo sapiens, UniProt P49841); assay: NanoBRET cellular target engagement assay, NLuc-GSK3β in HEK293T cells; type: cell-based; details: live HEK293T cells, 0.063 μM tracer K-8; read-out: GSK3β NanoBRET assay, inactive up to
T3 construct: host or cells: HEK293T
Procedure: HEK293T cells (hypotriploid, fetal) were purchased from ATCC. These cells were grown in Dulbecco’s modified Eagle’s medium (Gibco) supplemented with 10% (v/v) fetal bovine serum (Corning). They were incubated in 5% CO2 at 37 °C and passaged every 72 h with trypsin and not allowed to reach confluency. Constructs for NanoBRET measurements of CK1γ2 (NLuc-CK1γ2) and GSK3β (NLuc-GSK3β) were kindly provided by Promega. NanoBRET assays were carried out as described previously ([74]). Preferred NLuc orientations, both N-terminal in this case, are indicated in parentheses after each construct. Assays were carried out in dose–response as described by the manufacturer using 0.5 μM of tracer K-10 for CK1γ2 and 0.063 μM of tracer K-8 for GSK3β. Two biological replicates were executed with two technical replicates to produce the graphs with error bars shown in Figures 6E, 7E, 8, A and B. Tracer titration curves for these kinases that motivated our tracer selection and working concentration can be found on the Promega website.

CK1γ1 = molecular target: T4, CK1γ1 (Homo sapiens, UniProt Q9HCP0); assay: Eurofins kinase enzymatic radiometric assay, CK1γ1; type: biochemical; details: Km = ATP, 9-pt curve in duplicate
T4 construct: purchased Eurofins
Text: as §2

CK1γ2 = molecular target: T5, CK1γ2 (Homo sapiens, UniProt P78368); assay: Eurofins kinase enzymatic radiometric assay, CK1γ2; type: biochemical; details: Km = ATP, 9-pt curve in duplicate
T5 construct: purchased Eurofins
Text: as §2

CSNK1E = molecular target: T6, CSNK1E (Homo sapiens, UniProt P49674); assay: scanMAX binding assay, CSNK1E; details: Percent of Control; legend and method: 1 μM; read-out: CSNK1E PoC @ 1 µM
T6 construct: purchased Eurofins DiscoverX Corporation
Text: as §1

IRAK1 = molecular target: T7, IRAK1 (Homo sapiens, UniProt P51617); assay: scanMAX binding assay, IRAK1; details: Percent of Control; legend and method: 1 μM; read-out: IRAK1 PoC @ 1 µM
T7 construct: purchased Eurofins DiscoverX Corporation
Text: as §1

ADCK3 = molecular target: T8, ADCK3 (Homo sapiens, UniProt Q8NI60); assay: scanMAX binding assay, ADCK3; details: Percent of Control; legend and method: 1 μM; read-out: ADCK3 PoC @ 1 µM
T8 construct: purchased Eurofins DiscoverX Corporation (scanMAX)
Text: as §1

T4 sequence (Q9HCP0 whole entry): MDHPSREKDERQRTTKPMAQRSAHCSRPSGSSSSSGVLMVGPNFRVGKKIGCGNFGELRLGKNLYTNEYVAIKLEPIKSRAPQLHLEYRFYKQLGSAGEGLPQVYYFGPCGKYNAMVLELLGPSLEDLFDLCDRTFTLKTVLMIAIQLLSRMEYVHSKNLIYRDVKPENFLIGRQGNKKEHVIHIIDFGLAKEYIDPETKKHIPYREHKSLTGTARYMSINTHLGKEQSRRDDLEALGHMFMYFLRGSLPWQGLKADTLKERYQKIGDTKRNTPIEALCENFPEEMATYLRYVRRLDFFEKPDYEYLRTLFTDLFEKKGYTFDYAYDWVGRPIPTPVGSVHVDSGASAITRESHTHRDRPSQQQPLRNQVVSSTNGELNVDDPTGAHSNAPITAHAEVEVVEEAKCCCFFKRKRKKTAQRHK
T5 sequence (P78368 whole entry): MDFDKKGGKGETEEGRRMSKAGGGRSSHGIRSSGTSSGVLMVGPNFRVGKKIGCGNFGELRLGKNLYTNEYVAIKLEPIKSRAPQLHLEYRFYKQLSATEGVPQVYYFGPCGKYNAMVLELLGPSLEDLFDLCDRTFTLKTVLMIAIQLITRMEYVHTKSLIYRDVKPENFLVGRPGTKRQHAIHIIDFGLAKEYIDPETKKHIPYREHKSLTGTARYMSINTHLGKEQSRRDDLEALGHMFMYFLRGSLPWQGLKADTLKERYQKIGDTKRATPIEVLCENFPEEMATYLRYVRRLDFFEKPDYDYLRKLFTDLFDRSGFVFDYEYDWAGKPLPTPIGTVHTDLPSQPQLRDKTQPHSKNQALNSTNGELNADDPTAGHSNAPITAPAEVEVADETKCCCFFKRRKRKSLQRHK
T2 sequence (Q9Y6M4 whole entry): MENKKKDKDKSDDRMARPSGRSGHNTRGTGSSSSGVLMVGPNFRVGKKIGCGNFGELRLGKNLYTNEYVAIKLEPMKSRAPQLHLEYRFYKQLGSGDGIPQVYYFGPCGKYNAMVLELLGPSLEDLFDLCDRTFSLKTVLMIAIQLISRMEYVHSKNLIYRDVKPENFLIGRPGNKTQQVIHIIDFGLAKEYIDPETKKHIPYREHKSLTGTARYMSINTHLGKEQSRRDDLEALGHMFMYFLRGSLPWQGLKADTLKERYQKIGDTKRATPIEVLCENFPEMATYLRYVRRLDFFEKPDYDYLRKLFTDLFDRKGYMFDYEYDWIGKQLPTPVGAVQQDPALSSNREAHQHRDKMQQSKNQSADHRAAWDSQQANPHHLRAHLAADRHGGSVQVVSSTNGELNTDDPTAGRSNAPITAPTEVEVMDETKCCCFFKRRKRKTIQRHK
T7 sequence (P51617 whole entry): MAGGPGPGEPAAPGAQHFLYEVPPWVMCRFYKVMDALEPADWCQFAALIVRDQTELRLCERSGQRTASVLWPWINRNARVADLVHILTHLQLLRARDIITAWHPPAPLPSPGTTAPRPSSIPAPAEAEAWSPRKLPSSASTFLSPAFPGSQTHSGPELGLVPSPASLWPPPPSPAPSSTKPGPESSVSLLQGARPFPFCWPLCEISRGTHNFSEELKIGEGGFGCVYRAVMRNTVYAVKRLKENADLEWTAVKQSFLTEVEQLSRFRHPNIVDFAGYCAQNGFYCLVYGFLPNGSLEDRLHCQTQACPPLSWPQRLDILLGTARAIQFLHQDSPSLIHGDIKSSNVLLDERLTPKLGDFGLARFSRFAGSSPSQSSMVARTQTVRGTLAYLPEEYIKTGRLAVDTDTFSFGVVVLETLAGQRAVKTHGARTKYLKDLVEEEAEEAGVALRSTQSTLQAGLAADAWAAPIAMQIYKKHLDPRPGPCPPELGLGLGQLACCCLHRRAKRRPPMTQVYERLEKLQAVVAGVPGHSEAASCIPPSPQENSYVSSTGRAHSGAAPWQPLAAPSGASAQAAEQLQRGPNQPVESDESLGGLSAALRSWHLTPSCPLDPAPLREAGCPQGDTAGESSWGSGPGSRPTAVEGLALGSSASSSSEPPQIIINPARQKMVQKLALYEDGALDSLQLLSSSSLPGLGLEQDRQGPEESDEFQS
T1 sequence (P49841 whole entry): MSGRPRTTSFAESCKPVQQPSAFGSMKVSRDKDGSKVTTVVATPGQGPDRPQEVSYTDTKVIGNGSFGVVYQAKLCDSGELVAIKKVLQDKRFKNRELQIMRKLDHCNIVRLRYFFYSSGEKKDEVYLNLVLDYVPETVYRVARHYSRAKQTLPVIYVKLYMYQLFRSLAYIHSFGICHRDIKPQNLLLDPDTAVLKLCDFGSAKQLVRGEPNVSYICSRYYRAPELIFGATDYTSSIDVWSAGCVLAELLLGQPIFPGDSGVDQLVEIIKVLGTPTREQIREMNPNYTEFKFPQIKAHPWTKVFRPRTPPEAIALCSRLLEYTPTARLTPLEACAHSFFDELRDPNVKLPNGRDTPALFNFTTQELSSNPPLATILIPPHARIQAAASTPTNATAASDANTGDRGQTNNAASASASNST
T3 sequence (P49841 whole entry): as above
T8 sequence (Q8NI60 163-647): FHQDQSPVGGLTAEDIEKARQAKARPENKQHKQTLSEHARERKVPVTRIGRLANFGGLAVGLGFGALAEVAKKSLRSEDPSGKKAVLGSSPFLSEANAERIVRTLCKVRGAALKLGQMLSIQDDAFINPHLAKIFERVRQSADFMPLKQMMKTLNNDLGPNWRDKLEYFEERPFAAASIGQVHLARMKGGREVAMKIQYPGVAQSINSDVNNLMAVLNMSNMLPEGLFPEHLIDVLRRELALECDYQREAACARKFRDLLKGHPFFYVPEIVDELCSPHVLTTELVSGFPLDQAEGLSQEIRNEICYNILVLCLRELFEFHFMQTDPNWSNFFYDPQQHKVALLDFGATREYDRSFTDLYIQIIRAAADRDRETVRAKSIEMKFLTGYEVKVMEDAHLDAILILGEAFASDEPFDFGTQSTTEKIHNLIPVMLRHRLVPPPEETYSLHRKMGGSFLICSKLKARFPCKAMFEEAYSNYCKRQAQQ
CSNK1A1, sequence (P48729 whole entry): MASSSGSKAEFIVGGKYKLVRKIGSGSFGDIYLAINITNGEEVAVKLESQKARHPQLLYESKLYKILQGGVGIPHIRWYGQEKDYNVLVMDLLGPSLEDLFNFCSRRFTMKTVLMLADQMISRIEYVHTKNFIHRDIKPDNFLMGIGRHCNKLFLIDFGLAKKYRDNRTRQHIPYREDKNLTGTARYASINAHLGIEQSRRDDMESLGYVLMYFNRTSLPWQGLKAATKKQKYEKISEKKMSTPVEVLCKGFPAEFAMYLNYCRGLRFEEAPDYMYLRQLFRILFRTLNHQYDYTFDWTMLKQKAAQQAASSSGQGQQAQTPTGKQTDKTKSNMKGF
T6 sequence (P49674 whole entry): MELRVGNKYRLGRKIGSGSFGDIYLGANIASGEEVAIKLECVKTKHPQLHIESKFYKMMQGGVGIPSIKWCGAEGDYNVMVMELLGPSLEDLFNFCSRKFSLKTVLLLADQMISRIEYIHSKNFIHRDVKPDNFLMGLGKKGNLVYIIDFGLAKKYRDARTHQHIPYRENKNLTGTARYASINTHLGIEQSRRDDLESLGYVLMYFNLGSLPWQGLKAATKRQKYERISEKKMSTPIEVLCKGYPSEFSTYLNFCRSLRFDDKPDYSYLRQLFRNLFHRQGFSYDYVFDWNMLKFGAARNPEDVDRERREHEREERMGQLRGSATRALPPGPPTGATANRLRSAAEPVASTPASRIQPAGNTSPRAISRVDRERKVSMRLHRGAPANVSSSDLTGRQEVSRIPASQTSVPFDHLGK

GSK3β PoC @ 1 µM (GSK3β): did not inhibit | remaining binding at 1 µM (CSNK1A1): 3.1% | IC50 (CK1γ3): < 15 nM and 14 nM | IC50 (GSK3β (NLuc-GSK3β)): > 10000 nM | IC50 (CK1γ1): < 15 nM and 5.29 nM | IC50 (CK1γ2): < 15 nM and 2.22 nM | remaining binding at 1 µM (CSNK1E): 0.3% | remaining binding at 1 µM (IRAK1): 1.1% | remaining binding at 1 µM (ADCK3): 5.4%
Structure (SMILES): COc1cnc(COc2ccc(F)c(F)c2)cc1-c1cc2c([nH]1)CCNC2=O [FP1-24-2, 2-(2-((3,4-difluorophenoxy)methyl)-5-methoxypyridin-4-yl)-1,5,6,7-tetrahydro-4H-pyrrolo[3,2-c]pyridin-4-one]
BAR activity with CK1γ3 overexpression [1]: decrease
